This assay relates to enucleated cow eyes. Put plainly: Constant pressure perfusion of enucleated cow eyes, outflow facility. Conditions: 5 h perfusion, 22° centigrade, 15 mm of mercury; for increase in outflow facility at the end of the experiment versus initial baseline: 0.125 mM drug in perfusion medium, ± SEM; for increase in outflow facility at the end of the experiment versus initial baseline, drug plus cysteine: 0.125 mM drug plus 0.625 mM cysteine. How it is done: Enunciated cow eyes were obtained from a local commercial abattoir, immediately chilled, and then perfused within twenty-four hours using a standard constant pressure perfusion technique. Pairs of eyes from a single animal were used for each experiment and subjected to the same manipulation except for the experimental drug in the experimental eye of perfusion. Briefly, a 5 mm central cornea trephine button was removed from each eye. Radial iridotomy was performed to prevent artificial deepening of the anterior chamber during perfusion. The anterior chamber was then gently irrigated with perfusion medium to remove pigment which might have been liberated by the iridotomy. A Grant stainless steel fitting was then placed into the cornea and connected by twenty-three gauge polyethylene tubing to the fluid reservoir of the perfusion apparatus.
The perfusion medium was Dulbecco's phosphate-buffered salt solution (PBS) (Grand Island Biological Company, Grand Island, N.Y.) with added 5.5 mM glucose. All solutions were filtered through a 0.2 μm Nuclepore filter.
The initial flow value was determined after the eyes had been perfused for one hour which allowed sufficient time to achieve adequate stability. The corneal fitting was removed, and the anterior chamber was gently emptied and refilled with fresh perfusion medium with added drug or sham solution. The corneal fitting was replaced and the eye was perfused for an additional five hours. The outflow facility (flow/pressure) was calculated at the end of the experiment and compared to the initial baseline after the initial hour (pre-drug, both eyes received control perfusion medium for the first hour). The change in the experimental eye was compared to the change in the fellow control eye by a paired T-test. Control eyes were treated similarly except that an osmotically equivalent amount of sodium chloride was added to the perfusion medium in place of the drug. All perfusions were performed at 22° centigrade and the perfusion pressure was 15 mm of mercury.

Molecules are shown by their SMILES.

Take `CC1(c2ccccc2)Cc2cc(OCC(=O)O)c(Cl)c(Cl)c2C1=O` (stereo not shown) [indacrinone]: the “increase in outflow facility at the end of the experiment versus initial baseline” value is listed as 113%±24% and the “increase in outflow facility at the end of the experiment versus initial baseline, drug plus cysteine” value was 91%±8.
For the molecule `O=C(O)COc1ccc(C(=O)c2cccs2)c(Cl)c1Cl` [ticrynafen], the “increase in outflow facility at the end of the experiment versus initial baseline” value is listed as 102%±23% and the “increase in outflow facility at the end of the experiment versus initial baseline, drug plus cysteine” value is recorded as 80%±9%.

Source of the values: patent publication US6534082B1, “Method of treating disorders of the eye” (Duke University, priority 1994, dated 2003).
